According to PMC3445516 (PLoS ONE, 2012):
Values belong to the molecule of their own block, whether it stands above or below them.

What was measured:
MARK4 = biological target: T1, MARK4 (Homo sapiens, UniProt Q96L34); assay: Ambit kinase profiling, competition binding; conditions: compound concentration 10 uM
T1 construct: purchased Ambit Biosciences (KINOMEscan)
Excerpt: (§1) Supplement pone.0044653.s004.xls, sheet "Compound 122" | column: Percent Competition

ARK5 = biological target: T2, ARK5 (Homo sapiens, UniProt O60285); assay: Ambit kinase profiling, competition binding; conditions: compound concentration 10 uM
T2 construct: purchased Ambit Biosciences (KINOMEscan)
Excerpt: as §1

SRPK3 = biological target: T3, SRPK3 (Homo sapiens, UniProt Q9UPE1); assay: Ambit kinase profiling, competition binding; conditions: compound concentration 10 uM, read-out: Percent Competition
T3 construct: purchased Ambit Biosciences (KINOMEscan)
Excerpt: as §1

PIM3 = biological target: T4, PIM3 (Homo sapiens, UniProt Q86V86); assay: Ambit kinase profiling, competition binding; conditions: compound concentration 10 uM, read-out: Percent Competition
T4 construct: purchased Ambit Biosciences (KINOMEscan)
Excerpt: as §1

FLT3(N841I) = biological target: T5, FLT3(N841I) (Homo sapiens, UniProt P36888, N841I); assay: Ambit kinase profiling, competition binding; conditions: compound concentration 10 uM, read-out: Percent Competition
T5 construct: purchased Ambit Biosciences (KINOMEscan)
Excerpt: as §1

AMPK-alpha2 = biological target: T6, AMPK-alpha2 (Homo sapiens, UniProt P54646); assay: Ambit kinase profiling, competition binding; conditions: compound concentration 10 uM, read-out: Percent Competition
T6 construct: purchased Ambit Biosciences (KINOMEscan)
Excerpt: as §1

HCK = biological target: T7, HCK (Homo sapiens, UniProt P08631); assay: Ambit kinase profiling, competition binding; conditions: compound concentration 10 uM, read-out: Percent Competition
T7 construct: purchased Ambit Biosciences (KINOMEscan)
T7 sequence (P08631 whole entry): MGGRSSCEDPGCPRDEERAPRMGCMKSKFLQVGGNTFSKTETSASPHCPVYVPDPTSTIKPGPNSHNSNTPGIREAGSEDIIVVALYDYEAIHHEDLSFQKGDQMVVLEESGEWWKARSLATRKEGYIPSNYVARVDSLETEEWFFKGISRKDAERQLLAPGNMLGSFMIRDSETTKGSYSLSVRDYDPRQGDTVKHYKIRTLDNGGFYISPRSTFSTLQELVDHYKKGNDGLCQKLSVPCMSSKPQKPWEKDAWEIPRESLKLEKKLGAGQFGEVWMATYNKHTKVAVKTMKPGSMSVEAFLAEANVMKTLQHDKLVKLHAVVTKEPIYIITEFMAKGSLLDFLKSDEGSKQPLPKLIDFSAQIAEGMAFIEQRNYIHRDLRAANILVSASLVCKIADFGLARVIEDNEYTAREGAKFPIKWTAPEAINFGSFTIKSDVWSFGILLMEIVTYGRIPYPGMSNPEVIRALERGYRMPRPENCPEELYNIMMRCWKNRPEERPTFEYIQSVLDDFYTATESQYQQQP
Excerpt: as §1

MKNK2 = biological target: T8, MKNK2 (Homo sapiens, UniProt Q9HBH9); assay: Ambit kinase profiling, competition binding; conditions: compound concentration 10 uM, read-out: Percent Competition
T8 construct: purchased Ambit Biosciences (KINOMEscan)
Excerpt: as §1

[1] = biological target: T9, JAK1(JH1domain-catalytic) (Homo sapiens, UniProt P23458); assay: Ambit kinase profiling, competition binding; conditions: compound concentration 10 uM
T9 construct: JAK1(JH1domain-catalytic); purchased Ambit Biosciences (KINOMEscan)
Excerpt: as §1

EPHA4 = biological target: T10, EPHA4 (Homo sapiens, UniProt P54764); assay: Ambit kinase profiling, competition binding; conditions: compound concentration 10 uM, read-out: Percent Competition
T10 construct: purchased Ambit Biosciences (KINOMEscan)
Excerpt: as §1

LIMK2 = biological target: T11, LIMK2 (Homo sapiens, UniProt P53671); assay: Ambit kinase profiling, competition binding; conditions: compound concentration 10 uM, read-out: Percent Competition
T11 construct: purchased Ambit Biosciences (KINOMEscan)
Excerpt: as §1

MAP4K2 = biological target: T12, MAP4K2 (Homo sapiens, UniProt Q12851); assay: Ambit kinase profiling, competition binding; conditions: compound concentration 10 uM, read-out: Percent Competition
T12 construct: purchased Ambit Biosciences (KINOMEscan)
Excerpt: as §1

FLT3(K663Q) = biological target: T13, FLT3(K663Q) (Homo sapiens, UniProt P36888, K663Q); assay: Ambit kinase profiling, competition binding; conditions: compound concentration 10 uM, read-out: Percent Competition
T13 construct: purchased Ambit Biosciences (KINOMEscan)
Excerpt: as §1

CAMKK2 = biological target: T14, CAMKK2 (Homo sapiens, UniProt Q96RR4); assay: Ambit kinase profiling, competition binding; conditions: compound concentration 10 uM, read-out: Percent Competition
T14 construct: purchased Ambit Biosciences (KINOMEscan)
Excerpt: as §1

MYLK2 = biological target: T15, MYLK2 (Homo sapiens, UniProt Q9H1R3); assay: Ambit kinase profiling, competition binding; conditions: compound concentration 10 uM, read-out: Percent Competition
T15 construct: purchased Ambit Biosciences (KINOMEscan)
Excerpt: as §1

SgK085 = biological target: T16, SgK085 (Homo sapiens, UniProt Q86YV6); assay: Ambit kinase profiling, competition binding; conditions: compound concentration 10 uM, read-out: Percent Competition
T16 construct: purchased Ambit Biosciences (KINOMEscan)
Excerpt: as §1

[2] = biological target: T17, TYK2(JH1domain-catalytic) (Homo sapiens, UniProt P29597); assay: Ambit kinase profiling, competition binding; conditions: compound concentration 10 uM
T17 construct: TYK2(JH1domain-catalytic); purchased Ambit Biosciences (KINOMEscan)
Excerpt: as §1

EPHA7 = biological target: T18, EPHA7 (Homo sapiens, UniProt Q15375); assay: Ambit kinase profiling, competition binding; conditions: compound concentration 10 uM, read-out: Percent Competition
T18 construct: purchased Ambit Biosciences (KINOMEscan)
T18 sequence (Q15375 28-998): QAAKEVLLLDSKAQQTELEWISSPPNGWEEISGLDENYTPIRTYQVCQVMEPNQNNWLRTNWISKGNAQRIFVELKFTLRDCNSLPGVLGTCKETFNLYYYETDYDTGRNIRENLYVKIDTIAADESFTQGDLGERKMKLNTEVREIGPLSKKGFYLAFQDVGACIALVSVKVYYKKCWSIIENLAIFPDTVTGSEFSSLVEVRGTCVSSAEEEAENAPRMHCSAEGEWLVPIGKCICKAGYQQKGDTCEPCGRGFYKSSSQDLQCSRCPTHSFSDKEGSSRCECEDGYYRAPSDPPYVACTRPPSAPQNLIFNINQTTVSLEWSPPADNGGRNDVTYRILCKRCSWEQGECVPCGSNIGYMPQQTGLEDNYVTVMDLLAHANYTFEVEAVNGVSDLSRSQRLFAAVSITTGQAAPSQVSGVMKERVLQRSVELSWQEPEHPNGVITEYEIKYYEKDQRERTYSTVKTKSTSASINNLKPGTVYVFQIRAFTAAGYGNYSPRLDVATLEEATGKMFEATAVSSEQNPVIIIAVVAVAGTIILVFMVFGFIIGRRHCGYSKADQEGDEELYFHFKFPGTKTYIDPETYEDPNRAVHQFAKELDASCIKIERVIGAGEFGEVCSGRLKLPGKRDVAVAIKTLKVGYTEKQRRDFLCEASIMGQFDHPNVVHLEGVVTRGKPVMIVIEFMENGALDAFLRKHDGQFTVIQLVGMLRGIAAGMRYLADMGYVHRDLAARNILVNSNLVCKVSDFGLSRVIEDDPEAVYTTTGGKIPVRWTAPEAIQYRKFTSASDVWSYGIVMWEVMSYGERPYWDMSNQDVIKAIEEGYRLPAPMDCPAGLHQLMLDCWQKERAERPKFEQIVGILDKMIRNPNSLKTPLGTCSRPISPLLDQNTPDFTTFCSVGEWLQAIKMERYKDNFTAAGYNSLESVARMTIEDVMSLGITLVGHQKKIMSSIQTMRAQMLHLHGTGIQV
Excerpt: as §1

FGFR2 = biological target: T19, FGFR2 (Homo sapiens, UniProt P21802); assay: Ambit kinase profiling, competition binding; conditions: compound concentration 10 uM, read-out: Percent Competition
T19 construct: purchased Ambit Biosciences (KINOMEscan)
Excerpt: as §1

TNK2 = biological target: T20, TNK2 (Homo sapiens, UniProt Q07912); assay: Ambit kinase profiling, competition binding; conditions: compound concentration 10 uM, read-out: Percent Competition
T20 construct: purchased Ambit Biosciences (KINOMEscan)
T20 sequence (Q07912 whole entry): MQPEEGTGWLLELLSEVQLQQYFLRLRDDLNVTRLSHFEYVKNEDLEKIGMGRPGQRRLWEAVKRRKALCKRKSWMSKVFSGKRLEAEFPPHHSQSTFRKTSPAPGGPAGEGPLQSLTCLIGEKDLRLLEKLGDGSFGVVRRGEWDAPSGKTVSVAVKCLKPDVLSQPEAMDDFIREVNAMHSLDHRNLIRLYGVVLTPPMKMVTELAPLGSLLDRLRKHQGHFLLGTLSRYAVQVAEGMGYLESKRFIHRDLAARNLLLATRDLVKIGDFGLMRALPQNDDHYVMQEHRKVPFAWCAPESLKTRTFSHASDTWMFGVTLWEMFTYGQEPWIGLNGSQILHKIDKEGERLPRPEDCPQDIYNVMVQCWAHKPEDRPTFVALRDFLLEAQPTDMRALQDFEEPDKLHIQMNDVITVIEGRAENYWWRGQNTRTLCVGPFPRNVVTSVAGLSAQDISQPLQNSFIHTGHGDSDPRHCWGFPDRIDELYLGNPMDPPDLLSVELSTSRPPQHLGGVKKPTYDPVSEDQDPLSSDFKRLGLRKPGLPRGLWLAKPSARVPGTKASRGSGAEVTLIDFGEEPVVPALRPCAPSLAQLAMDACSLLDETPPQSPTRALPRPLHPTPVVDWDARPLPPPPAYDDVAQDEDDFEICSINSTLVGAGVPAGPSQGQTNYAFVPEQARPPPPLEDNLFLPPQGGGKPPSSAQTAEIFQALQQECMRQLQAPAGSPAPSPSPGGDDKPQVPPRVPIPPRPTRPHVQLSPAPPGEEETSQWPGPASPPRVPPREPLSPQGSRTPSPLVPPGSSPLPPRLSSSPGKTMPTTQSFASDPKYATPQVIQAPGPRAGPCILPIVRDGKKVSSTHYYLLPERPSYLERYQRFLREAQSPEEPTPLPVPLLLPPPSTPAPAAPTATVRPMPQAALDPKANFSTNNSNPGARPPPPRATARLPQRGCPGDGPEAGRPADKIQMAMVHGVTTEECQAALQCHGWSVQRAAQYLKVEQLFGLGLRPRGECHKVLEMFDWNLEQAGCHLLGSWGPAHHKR
Excerpt: as §1

MARK3 = biological target: T21, MARK3 (Homo sapiens, UniProt P27448); assay: Ambit kinase profiling, competition binding; conditions: compound concentration 10 uM, read-out: Percent Competition
T21 construct: purchased Ambit Biosciences (KINOMEscan)
Excerpt: as §1

RET(V804L) = biological target: T22, RET(V804L) (Homo sapiens, UniProt P07949, V804L); assay: Ambit kinase profiling, competition binding; conditions: compound concentration 10 uM, read-out: Percent Competition
T22 construct: purchased Ambit Biosciences (KINOMEscan)
T22 sequence (P07949 29-1114 V804L): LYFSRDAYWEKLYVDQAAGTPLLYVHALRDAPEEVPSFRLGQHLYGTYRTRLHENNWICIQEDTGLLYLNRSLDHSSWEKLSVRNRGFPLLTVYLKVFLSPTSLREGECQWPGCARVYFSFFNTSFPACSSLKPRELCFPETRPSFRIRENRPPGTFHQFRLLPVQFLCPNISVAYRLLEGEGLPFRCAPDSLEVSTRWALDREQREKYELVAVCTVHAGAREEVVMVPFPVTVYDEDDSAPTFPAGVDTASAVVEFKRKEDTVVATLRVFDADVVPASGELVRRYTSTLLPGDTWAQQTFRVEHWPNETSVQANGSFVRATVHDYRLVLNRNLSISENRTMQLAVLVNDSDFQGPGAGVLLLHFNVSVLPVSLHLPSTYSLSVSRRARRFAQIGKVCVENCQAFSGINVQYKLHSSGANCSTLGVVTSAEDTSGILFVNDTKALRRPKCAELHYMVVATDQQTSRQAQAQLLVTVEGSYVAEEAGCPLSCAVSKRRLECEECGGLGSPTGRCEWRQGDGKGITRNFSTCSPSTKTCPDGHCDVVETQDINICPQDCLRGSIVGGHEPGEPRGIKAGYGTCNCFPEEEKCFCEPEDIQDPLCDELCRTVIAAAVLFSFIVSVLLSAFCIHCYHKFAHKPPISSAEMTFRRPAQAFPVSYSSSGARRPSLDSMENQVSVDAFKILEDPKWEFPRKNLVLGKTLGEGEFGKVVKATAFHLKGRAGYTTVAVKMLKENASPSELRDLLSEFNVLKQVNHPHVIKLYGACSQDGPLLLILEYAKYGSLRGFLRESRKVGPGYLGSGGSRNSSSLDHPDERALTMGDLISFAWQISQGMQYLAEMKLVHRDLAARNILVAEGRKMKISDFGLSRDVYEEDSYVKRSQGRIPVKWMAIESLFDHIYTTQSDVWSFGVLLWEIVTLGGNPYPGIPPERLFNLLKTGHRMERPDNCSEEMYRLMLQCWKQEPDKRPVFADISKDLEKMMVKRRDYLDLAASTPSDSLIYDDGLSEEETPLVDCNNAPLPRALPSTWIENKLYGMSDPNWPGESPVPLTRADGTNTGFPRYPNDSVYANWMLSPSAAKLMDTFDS
Excerpt: as §1

LIMK1 = biological target: T23, LIMK1 (Homo sapiens, UniProt P53667); assay: Ambit kinase profiling, competition binding; conditions: compound concentration 10 uM, read-out: Percent Competition
T23 construct: purchased Ambit Biosciences (KINOMEscan)
Excerpt: as §1

NEK2 = biological target: T24, NEK2 (Homo sapiens, UniProt P51955); assay: Ambit kinase profiling, competition binding; conditions: compound concentration 10 uM, read-out: Percent Competition
T24 construct: purchased Ambit Biosciences (KINOMEscan)
Excerpt: as §1

PIP5K1A = biological target: T25, PIP5K1A (Homo sapiens, UniProt Q99755); assay: Ambit kinase profiling, competition binding; conditions: compound concentration 10 uM, read-out: Percent Competition
T25 construct: purchased Ambit Biosciences (KINOMEscan)
Excerpt: as §1

MEK2 = biological target: T26, MEK2 (Homo sapiens, UniProt P36507); assay: Ambit kinase profiling, competition binding; conditions: compound concentration 10 uM, read-out: Percent Competition
T26 construct: purchased Ambit Biosciences (KINOMEscan)
Excerpt: as §1

TNK1 = biological target: T27, TNK1 (Homo sapiens, UniProt Q13470); assay: Ambit kinase profiling, competition binding; conditions: compound concentration 10 uM, read-out: Percent Competition
T27 construct: purchased Ambit Biosciences (KINOMEscan)
Excerpt: as §1

EPHA5 = biological target: T28, EPHA5 (Homo sapiens, UniProt P54756); assay: Ambit kinase profiling, competition binding; conditions: compound concentration 10 uM
T28 construct: purchased Ambit Biosciences (KINOMEscan)
Excerpt: as §1

SRMS = biological target: T29, SRMS (Homo sapiens, UniProt Q9H3Y6); assay: Ambit kinase profiling, competition binding; conditions: compound concentration 10 uM, read-out: Percent Competition
T29 construct: purchased Ambit Biosciences (KINOMEscan)
Excerpt: as §1

PAK1 = biological target: T30, PAK1 (Homo sapiens, UniProt Q13153); assay: Ambit kinase profiling, competition binding; conditions: compound concentration 10 uM, read-out: Percent Competition
T30 construct: purchased Ambit Biosciences (KINOMEscan)
Excerpt: as §1

ABL1(E255K) = biological target: T31, ABL1(E255K) (Homo sapiens, UniProt P00519, E255K); assay: Ambit kinase profiling, competition binding; conditions: compound concentration 10 uM, read-out: Percent Competition
T31 construct: purchased Ambit Biosciences (KINOMEscan)
Excerpt: as §1

PYK2 = biological target: T32, PYK2 (Homo sapiens, UniProt Q14289); assay: Ambit kinase profiling, competition binding; conditions: compound concentration 10 uM, read-out: Percent Competition
T32 construct: purchased Ambit Biosciences (KINOMEscan)
Excerpt: as §1

TYRO3 = biological target: T33, TYRO3 (Homo sapiens, UniProt Q06418); assay: Ambit kinase profiling, competition binding; conditions: compound concentration 10 uM, read-out: Percent Competition
T33 construct: purchased Ambit Biosciences (KINOMEscan)
Excerpt: as §1

[3] = biological target: T34, RPS6KA5(Kin.Dom.2-C-terminal) (Homo sapiens, UniProt O75582); assay: Ambit kinase profiling, competition binding; conditions: compound concentration 10 uM, read-out: Percent Competition
T34 construct: RPS6KA5(Kin.Dom.2-C-terminal); purchased Ambit Biosciences (KINOMEscan)
Excerpt: as §1

MARK1 = biological target: T35, MARK1 (Homo sapiens, UniProt Q9P0L2); assay: Ambit kinase profiling, competition binding; conditions: compound concentration 10 uM, read-out: Percent Competition
T35 construct: purchased Ambit Biosciences (KINOMEscan)
Excerpt: as §1

DCAMKL1 = biological target: T36, DCAMKL1 (Homo sapiens, UniProt O15075); assay: Ambit kinase profiling, competition binding; conditions: compound concentration 10 uM
T36 construct: purchased Ambit Biosciences (KINOMEscan)
Excerpt: as §1

FLT1 = biological target: T37, FLT1 (Homo sapiens, UniProt P17948); assay: Ambit kinase profiling, competition binding; conditions: compound concentration 10 uM, read-out: Percent Competition
T37 construct: purchased Ambit Biosciences (KINOMEscan)
T37 sequence (P17948 27-1338): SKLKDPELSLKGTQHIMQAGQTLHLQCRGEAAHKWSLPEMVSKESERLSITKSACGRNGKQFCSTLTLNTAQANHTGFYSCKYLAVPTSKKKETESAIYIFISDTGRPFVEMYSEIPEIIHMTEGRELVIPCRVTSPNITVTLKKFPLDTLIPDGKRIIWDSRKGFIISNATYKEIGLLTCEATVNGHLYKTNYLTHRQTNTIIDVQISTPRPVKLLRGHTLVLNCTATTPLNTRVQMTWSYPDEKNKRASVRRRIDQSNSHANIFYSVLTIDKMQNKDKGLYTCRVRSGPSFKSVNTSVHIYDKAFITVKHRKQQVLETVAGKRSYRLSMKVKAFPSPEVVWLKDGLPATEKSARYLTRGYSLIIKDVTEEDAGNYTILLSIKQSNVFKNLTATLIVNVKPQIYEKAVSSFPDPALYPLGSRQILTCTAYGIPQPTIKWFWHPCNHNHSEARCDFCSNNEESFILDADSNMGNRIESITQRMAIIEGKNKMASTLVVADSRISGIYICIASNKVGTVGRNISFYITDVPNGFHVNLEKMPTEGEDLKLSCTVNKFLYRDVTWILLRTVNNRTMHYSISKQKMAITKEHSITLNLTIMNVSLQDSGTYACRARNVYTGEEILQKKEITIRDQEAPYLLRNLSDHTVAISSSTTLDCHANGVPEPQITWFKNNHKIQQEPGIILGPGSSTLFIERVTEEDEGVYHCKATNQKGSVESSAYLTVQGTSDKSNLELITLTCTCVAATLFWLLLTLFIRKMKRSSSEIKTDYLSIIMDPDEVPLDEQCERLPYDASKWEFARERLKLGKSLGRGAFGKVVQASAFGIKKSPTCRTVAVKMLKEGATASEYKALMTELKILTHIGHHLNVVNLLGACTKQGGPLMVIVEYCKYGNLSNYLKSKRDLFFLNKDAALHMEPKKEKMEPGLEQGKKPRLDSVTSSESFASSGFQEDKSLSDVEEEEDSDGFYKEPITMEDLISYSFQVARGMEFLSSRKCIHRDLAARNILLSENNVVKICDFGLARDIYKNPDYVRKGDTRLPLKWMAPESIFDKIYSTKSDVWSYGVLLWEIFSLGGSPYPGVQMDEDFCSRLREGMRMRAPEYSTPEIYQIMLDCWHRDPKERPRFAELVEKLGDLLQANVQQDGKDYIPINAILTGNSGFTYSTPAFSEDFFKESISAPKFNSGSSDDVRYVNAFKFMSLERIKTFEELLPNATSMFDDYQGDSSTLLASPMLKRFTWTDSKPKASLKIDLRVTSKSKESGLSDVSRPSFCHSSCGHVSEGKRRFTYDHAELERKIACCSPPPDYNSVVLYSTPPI
Excerpt: as §1

p38α = p38α (Homo sapiens, UniProt Q16539); design: method as in PMID 14561090; conditions: read-out: in vitro IC50 for p38α; cited from earlier work
[4] = test system: LPS-stimulated TNFα synthesis; design: method as in PMID 14561090; conditions: acute rat model of LPS-stimulated TNFα synthesis; cited from earlier work

Percent Competition (MARK4): <50%
Percent Competition (ARK5): <50%
inhibition at 10 µM (SRPK3): < 50%
inhibition at 10 µM (PIM3): < 50%
inhibition at 10 µM (FLT3(N841I)): < 50%
inhibition at 10 µM (AMPK-alpha2): < 50%
inhibition at 10 µM (HCK): < 50%
inhibition at 10 µM (MKNK2): < 50%
Percent Competition [1]: <50%
inhibition at 10 µM (EPHA4): < 50%
inhibition at 10 µM (LIMK2): < 50%
inhibition at 10 µM (MAP4K2): < 50%
inhibition at 10 µM (FLT3(K663Q)): < 50%
inhibition at 10 µM (CAMKK2): < 50%
inhibition at 10 µM (MYLK2): < 50%
inhibition at 10 µM (SgK085): < 50%
Percent Competition [2]: <50%
inhibition at 10 µM (EPHA7): < 50%
inhibition at 10 µM (FGFR2): < 50%
inhibition at 10 µM (TNK2): < 50%
inhibition at 10 µM (MARK3): < 50%
inhibition at 10 µM (RET(V804L)): < 50%
inhibition at 10 µM (LIMK1): < 50%
inhibition at 10 µM (NEK2): < 50%
inhibition at 10 µM (PIP5K1A): < 50%
inhibition at 10 µM (MEK2): < 50%
inhibition at 10 µM (TNK1): < 50%
Percent Competition (EPHA5): <50%
inhibition at 10 µM (SRMS): < 50%
inhibition at 10 µM (PAK1): < 50%
inhibition at 10 µM (ABL1(E255K)): < 50%
inhibition at 10 µM (PYK2): < 50%
inhibition at 10 µM (TYRO3): < 50%
inhibition at 10 µM [3]: < 50%
inhibition at 10 µM (MARK1): < 50%
Percent Competition (DCAMKL1): <50%
inhibition at 10 µM (FLT1): < 50%
Structure (SMILES): Fc1ccc(-c2c(-c3ccncc3)[nH]c3nccnc23)cc1 [RO1155697-000-005]

Structure (SMILES): CC(O)CNc1cc(-c2[nH]c3cccnc3c2-c2ccc(F)cc2)ccn1 (stereo not drawn) [Compound 140]
IC50 (p38α): 1 nM
in vivo efficacy [4]: in vivo efficacy has been demonstrated
